Measured values as given in ChEMBL document CHEMBL1201862, “PubChem BioAssay data set” (2004).
Active and inactive are the calls of the source.

Key:
[1] = target: T1, Short transient receptor potential channel 4 (Mus musculus, UniProt Q9QUQ5); experiment: mouse TRPC4 channel inhibitors, dose response, cell-based, HEK293 TRPC4/mu-opioid, Fluo-4 calcium (AID 434942); assay type: functional;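 also: potency of inhibitors blocking the TRPC4 calcium response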
T1 sequence (Q9QUQ5 whole entry): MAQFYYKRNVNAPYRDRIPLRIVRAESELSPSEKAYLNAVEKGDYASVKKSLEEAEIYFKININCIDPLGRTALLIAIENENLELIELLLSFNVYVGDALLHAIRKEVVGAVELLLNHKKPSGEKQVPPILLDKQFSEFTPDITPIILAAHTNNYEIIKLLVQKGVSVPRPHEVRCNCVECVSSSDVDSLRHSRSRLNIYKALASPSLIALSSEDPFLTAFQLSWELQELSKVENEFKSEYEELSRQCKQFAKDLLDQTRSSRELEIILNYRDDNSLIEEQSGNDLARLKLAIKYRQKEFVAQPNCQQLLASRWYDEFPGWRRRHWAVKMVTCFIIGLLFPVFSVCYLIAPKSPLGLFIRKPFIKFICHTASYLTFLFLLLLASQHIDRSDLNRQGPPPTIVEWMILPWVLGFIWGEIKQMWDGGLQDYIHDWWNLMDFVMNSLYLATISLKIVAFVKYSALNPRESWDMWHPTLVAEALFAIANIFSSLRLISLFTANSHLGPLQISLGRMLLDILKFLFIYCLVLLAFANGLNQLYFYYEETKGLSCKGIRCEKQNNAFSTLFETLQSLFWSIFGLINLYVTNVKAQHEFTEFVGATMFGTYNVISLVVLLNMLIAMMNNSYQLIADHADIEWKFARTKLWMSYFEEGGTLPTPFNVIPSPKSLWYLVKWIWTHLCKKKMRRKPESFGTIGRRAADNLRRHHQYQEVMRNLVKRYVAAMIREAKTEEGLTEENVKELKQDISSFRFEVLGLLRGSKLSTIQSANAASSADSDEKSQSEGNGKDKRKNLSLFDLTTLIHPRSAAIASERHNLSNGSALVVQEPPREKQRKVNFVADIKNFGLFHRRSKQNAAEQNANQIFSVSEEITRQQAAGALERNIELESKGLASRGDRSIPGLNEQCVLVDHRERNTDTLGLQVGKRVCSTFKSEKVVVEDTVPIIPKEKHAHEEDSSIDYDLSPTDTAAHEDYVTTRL

Leucine aminopeptidase = target: T2, Leucine aminopeptidase (Plasmodium falciparum 3D7, UniProt Q8IL11); experiment: P. falciparum M17LAP inhibitors, primary screen, biochemical, fluorogenic H-Leu-NHMec substrate, 1536-well (AID 1619); assay type: functional
T2 sequence (Q8IL11 whole entry): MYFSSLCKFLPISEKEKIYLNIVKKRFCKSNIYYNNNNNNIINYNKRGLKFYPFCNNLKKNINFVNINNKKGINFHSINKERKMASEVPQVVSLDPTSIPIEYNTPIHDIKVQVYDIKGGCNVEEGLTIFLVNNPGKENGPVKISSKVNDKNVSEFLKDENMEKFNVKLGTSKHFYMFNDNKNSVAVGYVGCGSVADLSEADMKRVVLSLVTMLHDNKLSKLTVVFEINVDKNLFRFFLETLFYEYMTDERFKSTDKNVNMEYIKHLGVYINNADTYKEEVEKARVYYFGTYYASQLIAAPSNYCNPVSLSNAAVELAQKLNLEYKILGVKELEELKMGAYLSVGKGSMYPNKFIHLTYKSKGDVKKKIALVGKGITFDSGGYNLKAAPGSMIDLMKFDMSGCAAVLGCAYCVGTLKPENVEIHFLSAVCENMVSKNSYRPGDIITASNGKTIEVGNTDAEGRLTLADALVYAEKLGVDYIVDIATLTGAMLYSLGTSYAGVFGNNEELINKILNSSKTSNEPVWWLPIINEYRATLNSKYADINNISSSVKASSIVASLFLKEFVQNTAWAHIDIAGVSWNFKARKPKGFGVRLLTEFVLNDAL

[2] = inhibitors of HIV Env-driven cell fusion, dose response, cherry-pick (AID 652057); assay type: functional, cell-based
[3] = inhibitors of clade B AD8 Env fusion, dose response, cell-based, cherry-pick (AID 652062); assay type: functional;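 also: luciferase signal from cell-cell fusion driven by HIV-1 clade B AD8 Env; potency is for inhibitors of fusion seen as a drop in luminescence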
[4] = ZM109 Env clade C HIV-1 fusion inhibitors, dose response, HeLa effector, CEM target cells, luciferase, cherry-pick (AID 652058); assay type: functional, cell-based
[5] = target: T3, Alkaline phosphatase, tissue-nonspecific isozyme (Homo sapiens, UniProt P05186); experiment: human TNAP enzyme inhibitors, SAR follow-up, biochemical, luminescent, dose response (AID 1056)
T3 sequence (P05186 whole entry): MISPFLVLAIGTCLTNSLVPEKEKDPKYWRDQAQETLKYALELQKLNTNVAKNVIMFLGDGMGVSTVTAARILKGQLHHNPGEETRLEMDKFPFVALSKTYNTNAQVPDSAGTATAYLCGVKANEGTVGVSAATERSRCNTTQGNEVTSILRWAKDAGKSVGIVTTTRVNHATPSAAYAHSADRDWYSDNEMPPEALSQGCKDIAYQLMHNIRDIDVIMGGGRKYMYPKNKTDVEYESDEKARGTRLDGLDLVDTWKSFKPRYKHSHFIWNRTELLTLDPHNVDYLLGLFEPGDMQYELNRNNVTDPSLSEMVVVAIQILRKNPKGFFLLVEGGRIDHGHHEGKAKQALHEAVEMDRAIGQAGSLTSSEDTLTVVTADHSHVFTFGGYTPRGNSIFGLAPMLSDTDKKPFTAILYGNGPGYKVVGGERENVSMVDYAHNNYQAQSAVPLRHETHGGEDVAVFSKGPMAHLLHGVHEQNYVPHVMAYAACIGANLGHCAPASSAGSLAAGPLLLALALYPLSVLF

[6] = target: Glyceraldehyde-3-phosphate dehydrogenase (Homo sapiens, UniProt P04406)
Chain of Glyceraldehyde-3-phosphate dehydrogenase (P04406 whole entry): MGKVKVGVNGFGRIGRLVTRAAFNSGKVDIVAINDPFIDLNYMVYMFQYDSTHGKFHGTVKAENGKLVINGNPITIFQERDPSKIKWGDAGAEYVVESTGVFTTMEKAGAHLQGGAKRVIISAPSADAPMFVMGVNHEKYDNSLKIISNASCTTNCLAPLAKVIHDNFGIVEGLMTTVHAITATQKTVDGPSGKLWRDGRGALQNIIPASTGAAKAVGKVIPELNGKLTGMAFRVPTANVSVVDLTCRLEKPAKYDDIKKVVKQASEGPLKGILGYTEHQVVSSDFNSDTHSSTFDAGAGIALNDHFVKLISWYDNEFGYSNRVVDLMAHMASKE

Nonstructural protein 1 = Nonstructural protein 1 (Influenza A virus, UniProt Q194T2); assay type: functional, Influenza A virus (A/California/07/2009(H1N1))
Chain of Nonstructural protein 1 (Q194T2 whole entry): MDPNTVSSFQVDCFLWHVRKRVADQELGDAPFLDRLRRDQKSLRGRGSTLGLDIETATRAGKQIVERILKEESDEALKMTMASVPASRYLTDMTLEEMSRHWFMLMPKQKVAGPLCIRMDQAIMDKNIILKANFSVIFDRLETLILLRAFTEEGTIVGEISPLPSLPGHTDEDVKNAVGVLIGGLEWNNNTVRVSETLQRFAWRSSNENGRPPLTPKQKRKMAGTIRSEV

Paired box protein Pax-8 = Paired box protein Pax-8 (Homo sapiens, UniProt Q06710); experiment: inhibitors of PAX8-driven TPO luciferase reporter, dose response, RMG-I cells, cherry-pick (AID 687027); assay type: functional, cell-based;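 also: luciferase reporter driven by Pax8 target thyroperoxidase promoter measured by SteadyGlo luminescence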
Chain of Paired box protein Pax-8 (Q06710 whole entry): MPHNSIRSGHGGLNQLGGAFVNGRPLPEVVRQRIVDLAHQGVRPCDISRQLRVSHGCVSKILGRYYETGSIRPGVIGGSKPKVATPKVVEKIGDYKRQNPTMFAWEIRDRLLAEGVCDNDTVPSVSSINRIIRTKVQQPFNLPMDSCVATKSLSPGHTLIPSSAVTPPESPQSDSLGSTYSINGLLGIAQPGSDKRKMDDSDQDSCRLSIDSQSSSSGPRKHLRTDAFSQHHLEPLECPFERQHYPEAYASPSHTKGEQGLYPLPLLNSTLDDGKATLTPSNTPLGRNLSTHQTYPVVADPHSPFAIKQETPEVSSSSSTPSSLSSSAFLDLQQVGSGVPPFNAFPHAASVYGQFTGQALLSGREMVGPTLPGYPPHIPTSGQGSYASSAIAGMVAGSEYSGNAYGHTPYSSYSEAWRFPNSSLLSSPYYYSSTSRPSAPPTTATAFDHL

Estrogen receptor = target: T4, Estrogen receptor (Homo sapiens, UniProt P03372);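 also: potency for inhibiting coactivator peptide recruitment to the receptor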
T4 sequence (P03372 whole entry): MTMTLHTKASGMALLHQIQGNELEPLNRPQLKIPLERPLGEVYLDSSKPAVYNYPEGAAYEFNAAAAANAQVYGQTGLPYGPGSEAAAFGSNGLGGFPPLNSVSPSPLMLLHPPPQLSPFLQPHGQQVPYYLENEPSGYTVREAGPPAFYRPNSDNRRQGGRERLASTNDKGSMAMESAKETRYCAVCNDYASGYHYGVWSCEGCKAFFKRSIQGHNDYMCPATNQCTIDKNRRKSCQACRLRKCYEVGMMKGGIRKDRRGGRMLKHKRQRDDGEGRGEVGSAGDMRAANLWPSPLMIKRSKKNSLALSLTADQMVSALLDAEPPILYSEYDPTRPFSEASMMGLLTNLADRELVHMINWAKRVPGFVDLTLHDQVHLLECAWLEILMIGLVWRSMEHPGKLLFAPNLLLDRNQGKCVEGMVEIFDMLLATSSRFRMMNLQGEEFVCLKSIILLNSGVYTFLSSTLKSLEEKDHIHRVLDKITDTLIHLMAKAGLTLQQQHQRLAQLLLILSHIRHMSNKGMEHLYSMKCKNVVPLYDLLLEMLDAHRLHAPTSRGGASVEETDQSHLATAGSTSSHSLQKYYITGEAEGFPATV

[7] = cytotoxicity toward NIH3T3 fibroblasts, dose response, counter-screen, cell-based, ATP luminescence, mouse fibroblasts (AID 2010); assay type: functional;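 also: cells exposed to compound for about 90 hours before reading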
H9c2 = experiment: cells; assay type: functional, cell-based; details: Rattus norvegicus, H9c2, Myocardium;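 also: confirmatory concentration-response retest of ultra-high-throughput screening hits for modulation of myocardial damage; cell death induced by hydrogen peroxide oxidative stress; compound pretreatment for 60 min then peroxide exposure for 2 h; potency is for protecting the cells against peroxide damage rather than for killing them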
[8] = inhibitors of intracellular T. cruzi replication, confirmation, NIH3T3 host cells, beta-gal luminescence (AID 2044); assay type: functional, cell-based;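 also: intracellular parasites grown in NIH/3T3 mouse fibroblasts as host cells; luminescent beta-galactosidase reporter signal from transgenic T. cruzi replicating inside host cells; inhibitors lower the luminescence signal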
[9] = target: T5, Zinc finger protein mex-5 (Caenorhabditis elegans, UniProt Q9XUB2); experiment: MEX-5/TCR-2 RNA interaction inhibitors, dose response, biochemical, C. elegans, fluorescence polarization (AID 1960)
T5 sequence (Q9XUB2 whole entry): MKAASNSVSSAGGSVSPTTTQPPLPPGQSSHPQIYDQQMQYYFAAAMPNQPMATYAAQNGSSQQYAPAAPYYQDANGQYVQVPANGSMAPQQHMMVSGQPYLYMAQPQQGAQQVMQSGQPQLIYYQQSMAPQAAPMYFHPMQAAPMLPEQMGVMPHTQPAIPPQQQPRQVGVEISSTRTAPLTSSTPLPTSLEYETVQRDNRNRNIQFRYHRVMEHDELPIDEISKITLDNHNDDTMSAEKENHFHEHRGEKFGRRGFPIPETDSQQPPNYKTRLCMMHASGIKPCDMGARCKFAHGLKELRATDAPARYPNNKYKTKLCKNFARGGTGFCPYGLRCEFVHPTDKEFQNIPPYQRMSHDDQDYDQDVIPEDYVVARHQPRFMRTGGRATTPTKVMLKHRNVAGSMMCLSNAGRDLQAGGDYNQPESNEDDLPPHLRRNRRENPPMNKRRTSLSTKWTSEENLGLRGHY

[10] = target: T6, RNA-binding protein pos-1 (Caenorhabditis elegans, UniProt G5EF15); experiment: inhibitors of POS-1/mex-3 RNA binding, dose response, biochemical, fluorescence polarization (AID 1964);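 also: purified POS-1 fused to maltose binding protein made in E. coli; potency of compounds blocking POS-1 binding to fluorescent RNA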
T6 sequence (G5EF15 whole entry): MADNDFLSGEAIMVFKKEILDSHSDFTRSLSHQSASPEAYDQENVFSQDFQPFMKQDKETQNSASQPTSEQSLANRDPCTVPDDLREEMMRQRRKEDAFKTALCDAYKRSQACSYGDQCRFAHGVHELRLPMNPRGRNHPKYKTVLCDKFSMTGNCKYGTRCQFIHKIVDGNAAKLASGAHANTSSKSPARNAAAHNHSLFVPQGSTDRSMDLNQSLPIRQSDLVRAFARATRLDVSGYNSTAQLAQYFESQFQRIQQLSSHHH

[11] = target: T7, Polyadenylate-binding protein 1 (Homo sapiens, UniProt P11940); experiment: PABP1 MLLE–PAM2 interaction inhibitors, dose response, miRNA deadenylation inhibitor project, biochemical, fluorescence polarization, Cy5-PAM2 peptide, secondary (AID 602260); assay type: functional; details: read-out: IC50_Mean
T7 sequence (P11940 whole entry): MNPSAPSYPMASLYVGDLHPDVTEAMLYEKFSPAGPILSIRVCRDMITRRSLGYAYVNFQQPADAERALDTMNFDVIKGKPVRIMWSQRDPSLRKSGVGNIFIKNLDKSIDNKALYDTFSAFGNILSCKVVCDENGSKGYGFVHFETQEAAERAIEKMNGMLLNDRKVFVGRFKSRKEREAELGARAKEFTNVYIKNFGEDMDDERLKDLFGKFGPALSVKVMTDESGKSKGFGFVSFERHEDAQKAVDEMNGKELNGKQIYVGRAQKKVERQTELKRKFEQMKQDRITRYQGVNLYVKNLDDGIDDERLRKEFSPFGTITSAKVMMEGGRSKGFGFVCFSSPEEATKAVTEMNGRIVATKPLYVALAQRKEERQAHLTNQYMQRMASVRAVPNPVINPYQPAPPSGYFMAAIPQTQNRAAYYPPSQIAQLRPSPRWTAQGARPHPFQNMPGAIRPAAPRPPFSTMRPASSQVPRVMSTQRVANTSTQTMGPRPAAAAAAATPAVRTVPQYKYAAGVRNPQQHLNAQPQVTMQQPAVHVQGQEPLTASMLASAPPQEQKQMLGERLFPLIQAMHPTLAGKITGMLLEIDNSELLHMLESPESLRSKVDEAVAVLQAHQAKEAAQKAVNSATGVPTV

[12] = target: T7, Polyadenylate-binding protein 1; experiment: PABP1 MLLE–PAM2 binding inhibitor potency, dose response, biochemical, fluorescence polarization, FITC-PAM2 peptide (AID 602259); assay type: functional; details: read-out: IC50_Mean
[13] = Luminescence Cell-Based Dose Response HTS to Identify Activators of Luciferase Translation or Activity in H4 […] Cells. [Related pubchem assays: 1829 (Project Summary), 1814 (Primary HTS)]; assay type: functional

Compound: O=c1c2ccccc2nc(SCc2ccccc2)n1CC1CCCO1 (configuration not stated)
- EC50 [1]: 3.35 µM (active)

Compound: CCc1c(O)nc(SCC(=O)Nc2ccc3c(c2)CCC3)nc1O
- IC50 (Leucine aminopeptidase): 8.08 µM (active)

Compound: COc1ccc(C(=O)NCCc2ccc(Cl)cc2)cc1S(=O)(=O)N1CCCCC1C (configuration not stated)
- AC50 [2]: 21.7 µM (active)
- AC50 [3]: 11.4 µM (active)
- AC50 [4]: 67.5 µM (active)

Compound: COc1ccc(Cc2nnc(N3C(=O)[C@H]4CC=CC[C@H]4C3=O)[nH]2)cc1
- IC50 [5]: 96 µM (active)
- IC50 [6]: > 100 µM (not active)

Compound: c1ccc(-c2ccccc2OCCOCCN2CCCCC2)cc1
- EC50 [1]: 2.11 µM (active)

Compound: CC1CCN(C2=C(NS(=O)(=O)c3ccc(Br)cc3)C(=O)c3ccccc3C2=O)CC1
- IC50 (Nonstructural protein 1): 10.8 µM (active)

Compound: C[C@H](CO)N1C[C@H](C)[C@H](CN(C)Cc2ccc(Cl)c(Cl)c2)Oc2c(NS(=O)(=O)c3ccc(Cl)cc3)cccc2C1=O
- AC50 [2]: 26.9 µM (active)
- AC50 (Paired box protein Pax-8): 13.7 µM (active)
- AC50 [3]: 42.9 µM (active)
- AC50 [4]: 20.1 µM (active)

Compound: Cc1nc2sccn2c1-c1nc(-c2cc3ccccc3o2)cs1
- IC50 (Estrogen receptor): 10.7 µM (active)

Compound: CCCCn1c(NC(=O)c2ccccc2)nc2ccccc21
- EC50 [7]: 11.3 µM (active)
- EC50 [1]: 5.96 µM (active)
- IC50 (H9c2): 9.17 µM (active)
- EC50 [8]: 2.15 µM (active)

Compound: CCSc1nnc(NC(=O)C2CCCCC2C(=O)OCC(F)(F)C(F)F)s1 (configuration not stated)
- IC50 (Leucine aminopeptidase): 76.8 µM (active)

Compound: Cc1ccc(NC(=O)c2sc3nc4c(c(-c5ccco5)c3c2N)CCC4)cc1
- EC50 [9]: 2.85 µM (active)
- EC50 [10]: 2.13 µM (active)
- IC50 (Estrogen receptor): > 50 µM (not active)

Compound: Cc1ccc(NC2=NC(=O)/C(=C/c3ccc(O)c([N+](=O)[O-])c3)S2)cc1Cl
- IC50 [6]: > 100 µM (not active)

Compound: Cc1nnc(SCC(=O)Nc2cccc(C(F)(F)F)c2)[nH]c1=O
- IC50 (Leucine aminopeptidase): 15.1 µM (active)

Compound: COc1cccc(C(CNC(=O)C(c2ccccc2)c2ccccc2)N(C)C)c1 (configuration not stated)
- EC50 [1]: 0.944 µM (active)

Compound: COc1ccc(Br)cc1S(=O)(=O)Nc1ccc2ccccc2c1
- IC50 [5]: > 10 µM (inactive)
- IC50 [6]: > 10 µM (inconclusive)

Compound: O=C(O)c1cc(-c2ccco2)nc2ccccc12
- IC50 [11]: > 66 µM (inactive)
- IC50 (Estrogen receptor): 23.4 µM (active)
- IC50 [12]: > 66 µM (inactive)

Compound: CCOC(=O)CC(=O)CSc1nc(O)c2sc(=S)n(-c3ccccc3)c2n1
- IC50 (Leucine aminopeptidase): 40.6 µM (active)

Compound: Cc1ccc(/C=c2/sc3nnc(-c4ccccc4Cl)n3c2=O)o1
- IC50 (Leucine aminopeptidase): 28.7 µM (active)

Compound: COC(=O)c1cc(-c2ccc(C)cc2C)n[nH]1
- IC50 [5]: 1.62 µM (active)
- IC50 [6]: > 100 µM (not active)

Compound: Cc1ccc(S(=O)(=O)Cc2ccc(C(=O)NCc3ccc4c(c3)OCO4)o2)cc1
- IC50 (Estrogen receptor): 37.5 µM (not active)

Compound: CCCn1c(NCc2ccc(C)o2)nc2ccccc21
- EC50 [1]: 5.31 µM (active)

Compound: CCOC(=O)c1cc(-c2ccc3c(c2)OCCO3)n[nH]1
- EC50 [13]: 345 nM (active)
- IC50 [5]: 6.04 µM (active)
- IC50 [6]: > 100 µM (not active)

Compound: CC(=O)Nc1n[nH]c(SCc2ccc(Br)cc2)n1
- IC50 [5]: > 100 µM (inactive)
- IC50 [6]: > 100 µM (not active)

Compound: COc1ccc2nc3oc(C(=O)N4CCN(c5cccc(C(F)(F)F)c5)CC4)cc3cc2c1
- IC50 (Estrogen receptor): 15.4 µM (active)
